Reference: PubChem BioAssay AID1845209 (Molecular Pharmacology Branch, DTP, NCI, 2023)

Tested on: NCI-H211 tumor spheroids, viability percent test/control
Experiment: Anticancer human tumor NCI-H211 cell line growth inhibition;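 further: spheroids exposed to agents for seven days before readout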
Conditions: spheroids with HUVEC and MSC; for IC50: curve of first compound; for viability, T/C: stronger effect = lower value
In short: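 Single agents and combinations were tested on spheroids built from tumor cells plus HUVEC and hMSC, at half-log dilutions starting at or near clinical Cmax, else 10 microM; final DMSO 0.25% (v/v).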

[1] = second compound 1 µM, first compound 0.00949 µM
[2] = second compound 1 µM, first compound 0.03 µM
[3] = second compound 1 µM, first compound 0.0949 µM
[4] = second compound 1 µM, first compound 0.3 µM
[5] = second compound 1 µM, first compound 0.949 µM
[6] = second compound 1 µM, first compound 3 µM
[7] = second compound 3.16 µM, first compound 0.00949 µM
[8] = second compound 3.16 µM, first compound 0.03 µM
[9] = second compound 3.16 µM, first compound 0.0949 µM
[10] = second compound 3.16 µM, first compound 0.3 µM
[11] = second compound 3.16 µM, first compound 0.949 µM
[12] = second compound 3.16 µM, first compound 3 µM
[13] = second compound 10 µM, first compound 0.00949 µM
[14] = second compound 10 µM, first compound 0.03 µM
[15] = second compound 10 µM, first compound 0.0949 µM
[16] = second compound 10 µM, first compound 0.3 µM
[17] = second compound 10 µM, first compound 0.949 µM
[18] = second compound 10 µM, first compound 3 µM
[19] = second compound 31.6 µM, first compound 0.00949 µM
[20] = second compound 31.6 µM, first compound 0.03 µM
[21] = second compound 31.6 µM, first compound 0.0949 µM
[22] = second compound 31.6 µM, first compound 0.3 µM
[23] = second compound 31.6 µM, first compound 0.949 µM
[24] = second compound 31.6 µM, first compound 3 µM
[25] = second compound 100 µM, first compound 0.00949 µM
[26] = second compound 100 µM, first compound 0.03 µM
[27] = second compound 100 µM, first compound 0.0949 µM
[28] = second compound 100 µM, first compound 0.3 µM
[29] = second compound 100 µM, first compound 0.949 µM
[30] = second compound 100 µM, first compound 3 µM

With `Cc1sc2c(c1C)C(c1ccc(Cl)cc1)=NC(CC(=O)Nc1ccc(O)cc1)c1nnc(C)n1-2` (stereo not given) + Cn1nnc2c(C(N)=O)ncn2c1=O the IC50 (second compound 1 µM) was less than 9.49 nM, the IC50 (second compound 3.16 µM) was less than 9.49 nM and the IC50 (second compound 10 µM) was less than 9.49 nM. For the same compound, the IC50 (second compound 31.6 µM) was less than 9.49 nM, the IC50 (second compound 100 µM) was less than 9.49 nM and the viability, T/C [1] was 25.5%. The viability, T/C [2] was 2.24%, the viability, T/C [3] was 0.88% and the viability, T/C [4] was 0.67%. The viability, T/C [5] was 0.78%, the viability, T/C [6] was 0.72% and the viability, T/C [7] was 36.7%. For the same compound, the viability, T/C [8] was 3.37%, the viability, T/C [9] was 0.97% and the viability, T/C [10] was 0.76%. For the same compound, the viability, T/C [11] was 0.66%, the viability, T/C [12] was 0.82% and the viability, T/C [13] was 31.8%. It also gave a viability, T/C [14] of 1.97%, a viability, T/C [15] of 1.15% and a viability, T/C [16] of 0.79%. For the same compound, the viability, T/C [17] was 0.76%, the viability, T/C [18] was 0.74% and the viability, T/C [19] was 22%. The viability, T/C [20] was 1.97%, the viability, T/C [21] was 1.02% and the viability, T/C [22] was 0.79%. For the same compound, the viability, T/C [23] was 0.71%, the viability, T/C [24] was 0.82% and the viability, T/C [25] was 6.77%. It also gave a viability, T/C [26] of 1.61%, a viability, T/C [27] of 1.08% and a viability, T/C [28] of 1.09%. For the same compound, the viability, T/C [29] was 0.86% and the viability, T/C [30] was 1.03%.

`Cn1ncnc1[C@H]1c2n[nH]c(=O)c3cc(F)cc(c23)N[C@@H]1c1ccc(F)cc1` + Cn1nnc2c(C(N)=O)ncn2c1=O gave an IC50 (second compound 1 µM) of less than 9.49 nM, an IC50 (second compound 3.16 µM) of less than 9.49 nM and an IC50 (second compound 10 µM) of less than 9.49 nM. The IC50 (second compound 31.6 µM) was less than 9.49 nM, the IC50 (second compound 100 µM) was less than 9.49 nM and the viability, T/C [1] was 3.46%. For the same compound, the viability, T/C [2] was 3.69%, the viability, T/C [3] was 2.71% and the viability, T/C [4] was 3.04%. For the same compound, the viability, T/C [5] was 3.81%, the viability, T/C [6] was 3.16% and the viability, T/C [7] was 3.37%. For the same compound, the viability, T/C [8] was 3.4%, the viability, T/C [9] was 3.93% and the viability, T/C [10] was 3.87%. It also gave a viability, T/C [11] of 3.65%, a viability, T/C [12] of 3.16% and a viability, T/C [13] of 3.37%. For the same compound, the viability, T/C [14] was 3.82%, the viability, T/C [15] was 3.49% and the viability, T/C [16] was 3.08%. The viability, T/C [17] was 3.95%, the viability, T/C [18] was 3.46% and the viability, T/C [19] was 3.2%. The viability, T/C [20] was 3.45%, the viability, T/C [21] was 3.47% and the viability, T/C [22] was 3.72%. It also gave a viability, T/C [23] of 3.28%, a viability, T/C [24] of 3.57% and a viability, T/C [25] of 2.87%. It also gave a viability, T/C [26] of 3.97%, a viability, T/C [27] of 3.4% and a viability, T/C [28] of 3.21%. For the same compound, the viability, T/C [29] was 3.43% and the viability, T/C [30] was 3.17%.

In the case of `[2H]c1nc(C)nc([2H])c1-c1cc(NC[C@@H](C)c2cccc3c(C(=O)NC)ccnc23)ncn1` + Cn1nnc2c(C(N)=O)ncn2c1=O, the IC50 (second compound 1 µM) is reported as greater than 10000 nM, the IC50 (second compound 3.16 µM) is reported as greater than 10000 nM and the IC50 (second compound 10 µM) is reported as greater than 10000 nM. It also gave an IC50 (second compound 31.6 µM) of 3300 nM, an IC50 (second compound 100 µM) of less than 31.6 nM and a viability, T/C (second compound 1 µM, first compound 0.0316 µM) of 97.9%. For the same compound, the viability, T/C (second compound 1 µM, first compound 0.1 µM) was 96.7%, the viability, T/C (second compound 1 µM, first compound 0.316 µM) was 93.5% and the viability, T/C (second compound 1 µM, first compound 1 µM) was 95%. It also gave a viability, T/C (second compound 1 µM, first compound 3.16 µM) of 101%, a viability, T/C (second compound 1 µM, first compound 10 µM) of 88.9% and a viability, T/C (second compound 3.16 µM, first compound 0.0316 µM) of 108%. The viability, T/C (second compound 3.16 µM, first compound 0.1 µM) was 113%, the viability, T/C (second compound 3.16 µM, first compound 0.316 µM) was 98.7% and the viability, T/C (second compound 3.16 µM, first compound 1 µM) was 99.7%. It also gave a viability, T/C (second compound 3.16 µM, first compound 3.16 µM) of 95.3%, a viability, T/C (second compound 3.16 µM, first compound 10 µM) of 103% and a viability, T/C (second compound 10 µM, first compound 0.0316 µM) of 106%. The viability, T/C (second compound 10 µM, first compound 0.1 µM) was 105%, the viability, T/C (second compound 10 µM, first compound 0.316 µM) was 85.5% and the viability, T/C (second compound 10 µM, first compound 1 µM) was 103%. It also gave a viability, T/C (second compound 10 µM, first compound 3.16 µM) of 65%, a viability, T/C (second compound 10 µM, first compound 10 µM) of 82.6% and a viability, T/C (second compound 31.6 µM, first compound 0.0316 µM) of 61.5%. It also gave a viability, T/C (second compound 31.6 µM, first compound 0.1 µM) of 53.1%, a viability, T/C (second compound 31.6 µM, first compound 0.316 µM) of 49.8% and a viability, T/C (second compound 31.6 µM, first compound 1 µM) of 47.5%. The viability, T/C (second compound 31.6 µM, first compound 3.16 µM) was 51.6%, the viability, T/C (second compound 31.6 µM, first compound 10 µM) was 18.4% and the viability, T/C (second compound 100 µM, first compound 0.0316 µM) was 33%. The viability, T/C (second compound 100 µM, first compound 0.1 µM) was 21.6%, the viability, T/C (second compound 100 µM, first compound 0.316 µM) was 15.9% and the viability, T/C (second compound 100 µM, first compound 1 µM) was 13.6%. The viability, T/C (second compound 100 µM, first compound 3.16 µM) was 11.7% and the viability, T/C (second compound 100 µM, first compound 10 µM) was 8.11%.
